Experimental data reported in patent US20260097133A1, “EPIGENETIC EDITING TOOL FOR TARGETING HEPATITIS B VIRUS GENE” (priority 2023, published 2026).

Legend:
[1] = tested on: HBx reporter cell line of type B HBV; assay: sgRNA functional screening in HBx reporter cell line (293 FT, P2A-EGFP), type B HBV; type: cell-based, type B HBV (serotype adw); conditions: for editing effects in the HBx reporter cell line: type B HBV, different time points after transfection of EPIREG + sgRNA
Source text: (§1) 293 FT was used to construct a reporter cell line for type B, type C and type D HBV surface antigen (HBsAg), core antigen (HBcAg), X protein (HBx) and polymerase (Pol), and the schematic diagram is shown in FIG. 1A. The genomic sequence containing the CpG island and regulatory elements before the protein transcription start site was retained, and the gene sequences of the self-cleaving peptide P2A and EGFP were fused after the 38th amino acid of the HBV surface antigen (HBsAg), the 129th amino acid of the core antigen (HBcAg), the 77th amino acid of the X protein (HBx), and the 177th amino acid of the polymerase (Pol), respectively. The reporter gene was integrated into the 293 FT genome using the PiggyBac transposon system, and a stably transfected cell line was constructed. The intensity of fluorescence was used to reflect the expression level of the protein, thereby quickly performing functional validation and preliminary screening of sgRNAs near the CpG island.
The screening scheme for sgRNA functional validation using the above-mentioned reporter cell line was designed as follows (FIG. 1B): after the reporter cells were plated, the composition EPIREG described in the present application (the domain of the composition was DNMT3A-hDNMT3L-xten80-ZIM3-xten80-dCas9, with an amino acid sequence as set forth in SEQ ID NO: 1194, and a nucleic acid sequence as set forth in SEQ ID NO: 1192 (CDS sequence) and 1193 (plasmid sequence)) containing different sgRNAs was delivered into the cells by transfection, and the two carried red fluorescence and blue fluorescence, respectively. Flow cytometry was used to sort red fluorescent and blue fluorescent double-positive cell populations, which were cultured for a long time. Flow cytometric analysis was performed every week to detect changes in the fluorescence intensity of the reporter cells, which could reflect changes in protein expression levels after epigenetic editing.

[2] = tested on: HBx reporter cell line of type D HBV; assay: sgRNA functional screening in HBx reporter cell line (293 FT, P2A-EGFP), type D HBV; type: cell-based, type D HBV (serotype ayw)
Source text: as §1, with “island. […]” for “island.”

[3] = tested on: type D hepatitis B virus (GenBank: U95551); assay: Knockdown of HBV markers in HBV-infected primary hepatocytes (PHH), Example 2; type: cell-based; conditions: for level of viral antigen protein (HBsAg, HBeAg/HBcAg) after end of treatment: sgRNA: single 4 h treatment, RG7834 stopped on day 13
Source text: A primary hepatocyte (PHH) cell line infected with type D hepatitis B virus (GenBank: U95551) was used in this example. […] Therefore, these four sgRNAs were used to formulate the pharmaceutical composition provided in the present application and perform epigenetic editing in primary hepatocytes to validate their inhibitory effect on HBV gene expression.
Two days after primary hepatocytes were infected with HBV, lipid nanoparticles (LNPs) (LNP preparation reference: https://doi.org/10.1038/s41586-021-03534-y) were used to deliver a composition containing mRNA encoding EPIREG (SEQ ID NO: 1191) and each sgRNA (BSG29, BSG31, BSG34, BSG35) into primary hepatocytes (administration dose was 2.5 μg/ml, the mass ratio of EPIREG to sgRNA was 1:1). The culture supernatant was collected every two days after administration to detect the expression levels of HBV surface antigen (HBsAg) and core antigen (HBcAg) secreted by the cells. Cell samples were collected until 14 days after administration, DNA and RNA were extracted from the cells, and the levels of HBV mRNA and changes in the cccDNA of the HBV gene were detected. The two groups of positive controls used Myrcludex B (WuXi AppTec, C9023GE070-1/PE0723) and RG7834 (WuXi AppTec, ET25747-14-P1), respectively. Myrcludex B could inhibit HBV infection of hepatocytes, and RG7834 could inhibit the synthesis of viral proteins. RG7834 was stopped on the day 13 of the experiment to observe the rebound of viral antigen proteins. (Specific detection methods were performed according to the following kit instructions: HBsAg ELISA kit, Antu-CL 0310; HBeAg ELISA kit, Antu-CL 0312; RNeasy 96 Kit (12), QIAGEN #74182)

[4] = tested on: type D hepatitis B virus (GenBank: U95551); assay: Candidate sgRNA effect validation in HBV-infected primary hepatocytes (PHH), Example 4; type: cell-based; conditions: 14 days after infection
Source text: A primary hepatocyte (PHH) cell line (WuXi AppTec, M00995-P) infected with type D hepatitis B virus (GenBank: U95551) was used in this validation experiment. Based on the screening results of the three libraries in Example 3 and combined with factors such as conservation, the 20 sgRNAs shown in the table below were selected to prepare the pharmaceutical composition provided in the present application and perform epigenetic editing in the primary hepatocytes to validate the inhibitory effect of the screened candidate sgRNAs on HBV gene expression.
Two days after primary hepatocytes were infected with HBV, lipid nanoparticles (LNPs) (LNP preparation reference: https://doi.org/10.1038/s41586-021-03534-y) were used to deliver the composition comprising the mRNA encoding EPIREG (sequence: SEQ ID NO: 1191) and each of the above-mentioned sgRNAs into primary hepatocytes (administration dose was 2.5 μg/ml, the mass ratio of EPIREG to sgRNA was 1:1). […] The supernatant of the culture medium was collected every two days after administration in each group, and the expression levels of HBV surface antigen (HBsAg), core antigen (HBcAg/HBeAg) and HBV DNA secreted by the cells were detected until 14 days after infection. Cell samples were collected, DNA and RNA in the cells were extracted, and the level of HBV mRNA was detected. […]

[5] = tested on: HBx reporter cell line of type C HBV; assay: sgRNA functional screening in HBx reporter cell line (293 FT, P2A-EGFP), type C HBV; type: cell-based, type C HBV (serotype adr)
Source text: as §1, with “island. […]” for “island.”

[6] = tested on: type D HBV surface antigen (HBsAg) reporter cell line; assay: sgRNA lentiviral library screening, HBsAg reporter cell line (NGS reads in GFP-negative cells); type: cell-based; conditions: sgRNA in GFP-negative cell population, day 14 after transfection of EPIREG
Source text: (§2) In this example, the type D HBV X protein (HBx), core antigen (HBcAg), and surface antigen (HBsAg) reporter cell lines were used for library screening. First, a sgRNA cell library of type D HBV gene was constructed using a reporter cell line according to the method described in example 1. The sgRNA library was packaged into lentivirus to obtain a sgRNA lentiviral library (carrying red fluorescence), the reporter cell line was infected with the lentiviral library, and the red fluorescence was sorted to obtain the sgRNA cell library. Each cell in this sorted cell library integrated a single sgRNA in the library while the cell itself carried a reporter sequence (carrying green fluorescence). The EPIREG tool described in example 2 (the amino acid sequence of the tool was SEQ ID NO: 1194) (carrying blue fluorescence) was transfected and delivered into a cell library carrying both sgRNA and reporter sequences. Red/green/blue fluorescent triple-positive cells were sorted using a flow cytometer and cultured long-term. The EPIREG transfected into the cells could work together with the sgRNA to silence GFP in the reporter. On the day 14 after transfection, the GFP-negative cell population in the cell library was sorted, the genomic DNA of the negative cell population was extracted for NGS sequencing. The sgRNAs with higher sequencing reads in the negative cell population were compared using the untreated cell library as a control reference, so as to obtain the candidate sgRNAs that could play an editing role corresponding to each reporter, respectively (the schematic diagram of this screening scheme is shown in FIG. 6, and the analysis method is referenced to the literature DOI: 10.1186/s13059-014-0554-4). The functionally validated sgRNAs for each reporter cell line are summarized in the following table (arranged by the starting position of the target sequence of each sgRNA).

[7] = tested on: type D HBV X protein (HBx) reporter cell line; assay: sgRNA lentiviral library screening, HBx reporter cell line (NGS reads in GFP-negative cells); type: cell-based; conditions: sgRNA in GFP-negative cell population, day 14 after transfection of EPIREG
Source text: as §2

[8] = tested on: type D HBV core antigen (HBcAg) reporter cell line; assay: sgRNA lentiviral library screening, HBcAg reporter cell line (NGS reads in GFP-negative cells); type: cell-based; conditions: sgRNA in GFP-negative cell population, day 14 after transfection of EPIREG
Source text: as §2

[9] = LNP with EPIREG mRNA + sgRNA 1:1, 2.5 μg/ml, 2-10 days after administration

Row | Compound | Log2 FC [6] | Log2 FC [7] | Log2 FC [8] | further results
1 | BSG43: sgRNA tested in the HBx reporter cell line of type B HBV (guide TCCTCTACCGATCCATACTG; listed as DNA, chemistry not given here) |  |  |  | editing effects in the HBx reporter cell line [1]: extremely high editing effects
2 | AGGAGTTCCGCAGTATGGAT [BSG35] |  |  |  | inhibitory effects on HBx expression [2]: nearly the best inhibitory effects; inhibitory effects on HBx expression ([1]; type B HBV HBx reporter cell line): nearly the best inhibitory effects; editing effects in the HBx reporter cell line [1]: extremely high editing effects; inhibitory effect compared with Myrcludex B and RG7834 [3]: close to that of the two reference inhibitors; inhibitory effect on HBsAg and HBeAg/HBcAg, comparison among sgRNAs ([3]; 2.5 μg/ml): best effect; expression levels of HBsAg and HBeAg/HBcAg in the supernatant (change) ([3]; 2.5 μg/ml, 2-10 days after administration): different degrees of decrease; reduction of expression level of HBeAg/HBcAg in the supernatant [3, 9]: about 80%; reduction of expression level of HBsAg in the supernatant [3, 9]: about 80%; time at which expression levels of HBsAg and HBeAg/HBcAg became stable ([3]; after single administration): basically stable on the day 4 after administration; level of viral antigen protein (HBsAg, HBeAg/HBcAg) after end of treatment [3]: remained stable at a low level; inhibition level, comparison among the 20 sgRNAs [4]: highest inhibition level; inhibitory effects on HBx expression [5]: nearly the best inhibitory effects
3 | BSG50: sgRNA tested in the HBx reporter cell line of type B HBV (guide GATCGGTAGAGGAGACACAA; listed as DNA, chemistry not given here) |  |  |  | editing effects in the HBx reporter cell line [1]: extremely high editing effects
4 | COCCCOc1cc2c(cc1OC)-c1cc(=O)c(C(=O)O)cn1[C@H](C(C)C)C2 [RG7834, reference compound] |  |  |  | level of viral antigen protein (HBsAg, HBeAg/HBcAg) after end of treatment [3]: clear rebound (increasing) trend
5 | BSG30: sgRNA tested in the HBx reporter cell line of type B HBV (guide CCTGCTGCGAGCAAAACAAG; listed as DNA, chemistry not given here) |  |  |  | editing effects in the HBx reporter cell line [1]: extremely high editing effects
6 | 211 (guide AGTCCCAAGCGACCCCGAGA; listed as DNA, chemistry not fully specified) [compound 211] | 1.5263 | 4.6655 | 4.4175 | 
7 | 467 (guide CGACCCTTCTCGGGGTCGCT; listed as DNA, chemistry not fully specified) [compound 467] | 1.8988 | 2.9245 | 2.0481 | 
8 | 491 (guide CGGAACGGCAGACGGAGAAG; listed as DNA, chemistry not fully specified) [compound 491] | 2.6046 | 6.0674 | 4.5168 | 
9 | 601 (guide GACCAAGCCCCAGCCAGTGG; listed as DNA, chemistry not fully specified) [compound 601] | 1.3073 | 7.1876 | 4.6508 | 
10 | 792 (guide GGTCTGGAGCAAACATTATC; listed as DNA, chemistry not fully specified) [compound 792] | 1.5074 | 5.6925 | 2.103 | 
11 | 88 (guide ACATCGTATCCATGGCTGCT; listed as DNA, chemistry not fully specified) [compound 88] | 1.2095 | 3.4448 | 3.4446 | 
12 | 641 (guide GATCGGCAGAGGAGCCGAAA; listed as DNA, chemistry not fully specified) [compound 641] | 1.58 | 7.351 | 5.5293 | 
13 | 483 (guide CGCCCCGTGGTCGGTCGGAA; listed as DNA, chemistry not fully specified) [compound 483] | 2.4519 | 6.4685 | 4.8386 | 
14 | 973 (guide TCGGAACGGCAGACGGAGAA; listed as DNA, chemistry not fully specified) [compound 973] | 1.056 | 6.3619 | 3.9552 | 
